In US6906098B2, “Mixed steroidal 1,2,4,5-tetraoxane compounds and methods of making and using thereof” (priority 2002, dated 2005):
In brackets after ≈: the same amount, converted by molar mass.

Legend:
[1] = tested on: Plasmodium falciparum chloroquine-susceptible strain D6; assay: In vitro antimalarial drug susceptibility assay (radiolabeled hypoxanthine incorporation), strain D6; type: cell-based; conditions: Plasmodium falciparum, D6, 66 h, read-out: Strain D6 IC50, growth inhibition, chloroquine-susceptible strain D6, 66 h incubation
[2] = tested on: Plasmodium falciparum chloroquine-resistant strain W2; assay: microbe, parasite or virus in culture; type: cell-based; conditions: Plasmodium falciparum, W2, 66 h, read-out: Strain W2 IC50, growth inhibition, chloroquine-resistant strain W2, 66 h incubation
[3] = tested on: D6 and W2 P. falciparum clones; type: cell-based, Plasmodium falciparum; conditions: IC50 (W2)/IC50 (D6) ratio
[4] = tested on: Mycobacterium tuberculosis H37Rv (ATCC 27294); assay: Primary screen, Microplate Alamar Blue Assay (MABA), percent inhibition; type: cell-based; conditions: Mycobacterium tuberculosis, Table 5; Alamar assay, primary screening at 6.25 μg/ml; read-out: % Inhib
Procedure, shortened: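 Single-concentration screen at 6.25 μg/ml (or molar equivalent of the heaviest congener in a series) against H37Rv grown in BACTEC 12B medium. Growth read by Microplate Alamar Blue Assay, reported as percent inhibition.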

M. tuberculosis H37Rv = assay: Minimum inhibitory concentration (MIC) in the MABA; type: cell-based, Mycobacterium tuberculosis; conditions: Mycobacterium tuberculosis, H37RV, Table 5; Alamar assay, M. tuberculosis H37Rv; read-out: MIC
Procedure, shortened: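 Run under the NIAID TAACF screening program against M. tuberculosis by fluorescence read-out. MIC taken as the lowest concentration giving 90% reduction in fluorescence relative to controls.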

[5] = tested on: 60 human tumor cell lines; assay: DTP Human Tumor Cell Line Screen, full panel; type: cell-based; conditions: range over 60 cell lines, after 48 h, read-out: LC50 (the source's name)
Protocol: In preliminary tests, four compounds (1B14a, 1C44, 1C45, and 1C46) were chosen by NIH-NCI for in vitro screening. See Drug discovery and development program, National Cancer Institute, Bethesda, (NCI), http://dtp.nci.nih.gov. All tetraoxanes were evaluated in the 3-cell line (lung—NCI-H460, breast—MCF7, CNS-SF-268) one dose primary anticancer assay: growth percentage after 48 hours, at 100 μM concentration of tested compound. Two compounds were eliminated at this step (1B14a and 1C46), while the acid 1C44 and primary amide 1C45 were evaluated against the full panel of 60 human tumor cell lines starting with 10^−4 M concentration of investigated compounds.
The activity of numerous compounds of the present invention against various cancer cell lines was submitted to the Developmental Therapeutics Program (DTP) at the National Cancer Institute (NCI) of the National Institutes of Health (NIH) for screening.
The DTP Human Tumor Cell Line Screen utilizes 60 different human tumor cell lines, representing leukemia, melanoma and cancers of the lung, colon, brain, ovary, breast, prostate, and kidney according to conventional methods known in the art. […]

[6] = tested on: standard panel of 12 tumor cell lines in hollow fibers (IP and SC implants); assay: Hollow Fiber Assay; type: in vivo, mice
Protocol: Generally, as a preliminary in vivo screening tool, the following assay is conducted. A standard panel of 12 tumor cell lines were used for the routine hollow fiber screening of the in vitro activities. These include NCI-H23, NCI-H522, MDA-MB-231, MDA-MB-435, SW-620, COLO 205, LOX, UACC-62, OVCAR-3, OVCAR-5, U251 and SF-295 according to conventional methods known in the art. See e.g. Hollingshead, M., et al. (1995) Life Sciences 57:131-141, which is herein incorporated by reference. The cell lines are cultivated in RPMI-1640 containing 10% FBS and 2 mM glutamine. On the day preceeding hollow fiber preparation, the cells are given a supplementation of fresh medium to maintain log phase growth. […] On the day of implantation, samples of each tumor cell line preparation are quantitated for viable cell mass by a stable endpoint MTT assay so that the time zero cell mass is known. […] The optical density of each sample is determined spectrophotometrically at 540 nm and the mean of each treatment group is calculated. The percent net growth for each cell line in each treatment group is calculated and compared to the percent net growth in the vehicle treated controls.
A 50% or greater reduction in percent net growth in the treated samples compared to the vehicle control samples is considered a positive result. […] A compound is referred for xenograft testing if it has a combined IP+SC score of 20 or greater, a SC score of 8 or greater, or produces cell kill of any cell line at either dose level evaluated.

[7] = tested on: red blood cell (RBC) membrane; assay: Hemolytic activity test; conditions: initial experiments

SMILES | IC50 [1] | IC50 [2] | Resistance Index [3] | inhibition at 6.25 µg/mL [4] | MIC (M. tuberculosis H37Rv) | CC50 [5] | Total Score ([6]; combined IP+SC, maximum possible 96) | IP score ([6]; intraperitoneal implants, agent by intraperitoneal injection at 2 dose levels, daily for 4 days) | SC score ([6]; subcutaneous implants) | red blood cell (RBC) membrane lysis [7]
COC(=O)CCC(C)[C@H]1CCC2C3C(C[C@H](OC(C)=O)[C@@]21C)[C@@]1(C)CCC2(C[C@H]1C[C@H]3OC(C)=O)OOC1(CCCCCCC1)OO2 (stereo partly drawn) [8c/1B11, Methyl 7α,12α-diacetoxy-5β-cholan-24-oate-3-spiro-6′-(1′,2′,4′,5′-tetraoxacyclohexane)-3′-spirocyclooctane] | 0.0321 µg/mL (≈ 0.0484 µM) | 0.0133 µg/mL (≈ 0.02 µM) | 0.41 | 0% | > 6.25 µg/mL | > 100 µM | – | – | – | –
CCCNC(=O)CCC(C)[C@H]1CCC2C3C(C[C@H](OC(C)=O)[C@@]21C)[C@@]1(C)CCC2(C[C@H]1C[C@H]3OC(C)=O)OOC1(CCCCC1)OO2 (stereo partly drawn) [11/1C20, N-(n-Propyl)-7α,12α-diacetoxy-5β-cholan-24-amide-3-spiro-6′-(1′,2′,4′,5′-tetraoxacyclohexane)-3′-spirocyclohexane] | 0.00977 µg/mL (≈ 0.0148 µM) | 0.0045 µg/mL (≈ 0.0068 µM) | 0.46 | 88% | > 6.25 µg/mL | – | 20 | 18 | 2 | no red blood cell (RBC) membrane lysis
